How the values were obtained:
[1] = system: aggregate of GCaMP-cardiomyocytes derived from human iPS cells; experiment: GCaMP fluorescence wave (intracellular calcium) drug response of cardiomyocyte aggregates after freeze-thaw; type: cell-based; settings: for change of TtP, CAD50, CAD70 and CAD90: 300 nM E4031, 1 μM astemizole, 1 μM nifekalant, 10 μM chromanole 293b, 30 μM mexiletine, 50 nM nifedipine; for change of PtP (beat interval): 300 nM isoproterenol, 1 μM propranol
Source text: A gene encoding GCaMP3, which is a calcium sensitive GFP that emits GFP fluorescence when bound to intracellular calcium, was introduced into a human iPS cell line (253G1) or a monkey iPS cell line (HT4M2) by AAVS1 region-specific gene transfer mediated by CRISPR. From the human GCaMP3-iPS cells, cardiomyocytes were induced in the same manner as in Section 1 to prepare an aggregate of cardiomyocytes that emitted GFP fluorescence in response to the change in intracellular calcium concentration during the beating. Also, from the monkey GCaMP-iPS cells, cardiomyocytes were induced using cytokines as described previously (Nat Biotechnol. 2007 September; 25(9): 1015-24. Epub 2007 Aug. 26) to prepare an aggregate of cardiomyocytes that emitted GFP fluorescence in response to the change in intracellular calcium concentration. Specifically, the monkey GCaMP-iPS cells were cultured for 24 hours with RPMI-B27 medium (Invitrogen) supplemented with human recombinant activin A (R&D Systems) (100 ng/ml), and then for four days with RPMI-B27 medium supplemented with human recombinant BMP4 (R&D Systems) (10 ng/ml). After the medium was replaced with RPMI-B27 medium without these cytokines, the cells were cultured for 21 days. The GCaMP-cardiomyocytes were dispersed into single cells with a trypsin/collagenase solution, and seeded on Sumilon PrimeSurface 96-well V-bottom plates at 1×10^5 cells/well to form uniform aggregates (700 to 1000 μm in diameter). The aggregates were used to analyze the change in intracellular calcium concentration wave, which synchronized the beating of cardiomyocytes.
derived from human iPS cells seven days after thawing to compare parameters of GCaMP fluorescence wave (change in intracellular calcium ion concentration) before and 10 minutes after the E4031 addition. Analyzed were time from the rise to the peak of fluorescence wave (TtP), and time from the rise to the peak of fluorescence wave and then to the decrease to 50% of the peak value (CaD50), to 70% of the peak value (CaD70), or to 90% of the peak value (CaD90) (FIG. 5-A).
E4031 was added to an aggregate of GCaMP-cardiomyocytes derived from human iPS cells seven days after thawing at 0, 0.3, 3, 30, or 300 nM to analyze the rate of change with E4031.

[2] = system: cardiomyocytes induced from pluripotent stem cells; settings: cardiomyocytes induced by the method described in WO 2015/182765; cited from earlier work
[3] = system: aggregate of GCaMP-cardiomyocytes derived from human iPS cells; experiment: Cardiotoxicity of anthracycline in cardiomyocyte aggregates after freeze-thaw (GCaMP fluorescence); type: cell-based
Experimental: To detect cardiotoxicity of anthracycline anticancer agents, doxorubicin (10 μM) or daunorubicin (20 μM), was added for 24 hours to an aggregate of GCaMP-cardiomyocytes derived from human iPS cells seven days after thawing. The intracellular calcium wave was plotted with GCaMP fluorescence for an aggregate of cardiomyocytes without any agent (control) (FIGS. 8-A, 8-B), three days after the addition of doxorubicin (FIG. 8-C), or three days after the addition of daunorubicin (FIG. 8-D).
The change in parameters of GCaMP fluorescence wave was analyzed with the addition of doxorubicin (10 μM) or daunorubicin (20 μM) (FIGS. 9-A, 9-B).

[4] = doxorubicin 10 μM or daunorubicin 20 μM
[5] = 50 μM ryanodine, seven days after thawing

## Cc1cccc(CCN2CCC(C(=O)c3ccc(NS(C)(=O)=O)cc3)CC2)n1 [E4031]
[1]; seven days after thawing
  change of TtP, CAD50, CAD70 and CAD90: extended
[1]; 300 nM, 10 minutes after addition vs before, aggregate seven days after thawing
  extension of all GCaMP fluorescence wave parameters (TtP, CaD50, CaD70, CaD90): around 40%
[1]; tested at 0, 0.3, 3, 30, 300 nM, seven days after thawing
  concentration at or above which TtP, CAD50, CAD70 and CAD90 were extended in a concentration-dependent manner: ≥ 3 nM
[2]
  effect on action potential: prolongation of action potential

## COc1ccc(CCN2CCC(Nc3nc4ccccc4n3Cc3ccc(F)cc3)CC2)cc1 [astemizole]
[1]; seven days after thawing
  change of TtP, CAD50, CAD70 and CAD90: extended

## CCS(=O)(=O)N(C)[C@H]1c2cc(C#N)ccc2OC(C)(C)[C@@H]1O [chromanole 293b]
[1]; seven days after thawing
  change of TtP, CAD50, CAD70 and CAD90: extended
[2]
  effect on action potential: prolongation of action potential

## COc1cccc2c1C(=O)c1c(O)c3c(c(O)c1C2=O)C[C@@](O)(C(C)=O)C[C@@H]3O[C@H]1C[C@H](N)[C@H](O)[C@H](C)O1 [daunorubicin]
[3]; [4]
  amplitude of GCaMP fluorescence wave: tended to decrease significantly
  change of PtP: significantly decreased
  change of TtP and CAD: not significantly changed
[3]; doxorubicin 10 μM or daunorubicin 20 μM added for 24 hours, three days after the addition
  intracellular calcium wave findings (cardiotoxicity): short PtP, tachycardia, variable heartbeat interval, and arrhythmia

## CC(C)NCC(O)c1ccc(O)c(O)c1 (centres unmarked) [isoproterenol]
[1]; [5]
  change of PtP (beat interval): decreased PtP

## Cc1cccc(C)c1OCC(C)N (centres unmarked) [mexiletine]
[1]; seven days after thawing
  change of TtP, CAD50, CAD70 and CAD90: extended

## Cn1c(NCCN(CCO)CCCc2ccc([N+](=O)[O-])cc2)cc(=O)n(C)c1=O [nifekalant]
[1]; seven days after thawing
  change of TtP, CAD50, CAD70 and CAD90: extended

## CC(C)NCC(O)COc1cccc2ccccc12 (centres unmarked) [propranol]
[1]; [5]
  change of PtP (beat interval): increased PtP

## ryanodine
[1]; [5]
  change of PtP (beat interval): increased PtP
  peak value of GCaMP fluorescence (PeakValue, intracellular calcium increase): decreased
